# Measurements from ChEMBL document CHEMBL3792305, “Computational Tools To Model Halogen Bonds in Medicinal Chemistry” (J Med Chem, 2016).
# Tests used:
# [1] = molecular target: T1, Casein kinase II subunit alpha (Homo sapiens, UniProt P68400); test: Competitive inhibition of human wild type CK2alpha by Dixon plot analysis
# [2] = molecular target: Cellular tumor antigen p53 (Homo sapiens, UniProt P04637, Y220C); test: Stabilization of human p53 Y220C mutant by differential scanning calorimetry
# [3] = molecular target: T1, Casein kinase II subunit alpha; test: Inhibition of human wild type CK2alpha
# Casein kinase II = Casein kinase II (Homo sapiens, UniProt P19784+P67870+P68400); test: Inhibition of CK2 (unknown origin); assay type: protein-complex assay
# Sequence of Casein kinase II (P67870 whole entry): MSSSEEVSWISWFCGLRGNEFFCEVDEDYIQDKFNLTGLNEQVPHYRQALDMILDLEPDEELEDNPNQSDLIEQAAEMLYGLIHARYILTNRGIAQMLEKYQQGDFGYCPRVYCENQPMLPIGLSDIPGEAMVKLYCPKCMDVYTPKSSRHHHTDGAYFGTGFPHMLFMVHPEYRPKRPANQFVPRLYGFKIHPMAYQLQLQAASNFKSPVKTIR
# Sequence of Casein kinase II (P68400 whole entry): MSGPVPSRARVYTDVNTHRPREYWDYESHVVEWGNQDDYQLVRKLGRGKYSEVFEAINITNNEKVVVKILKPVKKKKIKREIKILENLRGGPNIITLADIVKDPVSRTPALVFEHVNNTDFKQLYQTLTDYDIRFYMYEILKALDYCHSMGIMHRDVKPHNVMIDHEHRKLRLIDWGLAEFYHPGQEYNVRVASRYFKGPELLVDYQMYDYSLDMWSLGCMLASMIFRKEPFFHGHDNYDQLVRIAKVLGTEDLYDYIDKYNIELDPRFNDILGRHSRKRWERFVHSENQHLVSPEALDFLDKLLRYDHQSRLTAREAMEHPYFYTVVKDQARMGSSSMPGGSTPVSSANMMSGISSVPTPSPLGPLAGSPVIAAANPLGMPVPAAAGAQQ
# Sequence of Casein kinase II (P19784 whole entry): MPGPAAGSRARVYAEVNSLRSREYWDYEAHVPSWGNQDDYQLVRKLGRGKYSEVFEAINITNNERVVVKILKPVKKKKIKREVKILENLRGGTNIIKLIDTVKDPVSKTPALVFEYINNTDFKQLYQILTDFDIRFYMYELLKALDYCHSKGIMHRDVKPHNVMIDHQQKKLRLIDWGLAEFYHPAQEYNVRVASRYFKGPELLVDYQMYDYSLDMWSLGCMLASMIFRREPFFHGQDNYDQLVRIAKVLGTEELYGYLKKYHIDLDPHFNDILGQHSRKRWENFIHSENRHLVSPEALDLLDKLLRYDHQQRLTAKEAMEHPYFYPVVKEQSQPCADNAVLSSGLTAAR
# [4] = molecular target: T1, Casein kinase II subunit alpha; test: Inhibition of CK2alpha (unknown origin)
# [5] = molecular target: Human immunodeficiency virus type 1 reverse transcriptase (Human immunodeficiency virus 1) (UniProt Q72547); test: Binding affinity to HIV1 reverse transcriptase relative to control
# [6] = molecular target: T2, Adenosine kinase (Toxoplasma gondii) (UniProt Q9TVW2); test: Binding affinity to Toxoplasma gondii adenosine kinase assessed as formation of [14C]AMP from [14C]adenosine and ATP after 10 mins by liquid scintillation counting method relative to control
# T2 sequence (whole entry): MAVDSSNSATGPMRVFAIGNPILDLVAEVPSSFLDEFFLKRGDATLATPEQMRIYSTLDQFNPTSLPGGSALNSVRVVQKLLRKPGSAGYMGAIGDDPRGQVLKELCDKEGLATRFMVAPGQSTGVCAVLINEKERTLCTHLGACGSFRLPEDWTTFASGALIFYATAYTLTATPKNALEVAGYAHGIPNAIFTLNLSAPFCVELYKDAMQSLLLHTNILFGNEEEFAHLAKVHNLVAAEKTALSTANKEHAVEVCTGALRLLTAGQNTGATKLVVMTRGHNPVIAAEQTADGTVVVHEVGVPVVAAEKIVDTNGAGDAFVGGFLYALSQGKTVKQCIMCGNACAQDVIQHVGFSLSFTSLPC
# T1 sequence (P68400 whole entry): as the sequence (P68400 whole entry) above
compound,measurement,setting,value
Cc1nc2c(I)c(Cl)c(Cl)c(I)c2[nH]1,Ki,[1],0.2 µM
CCn1c2ccccc2c2cc(CNC)ccc21,Kd,[2],150 µM
S=c1[nH]c2c(Br)c(Br)c(Br)c(Br)c2[nH]1,Ki,[3],0.07 µM
CS(=O)(=O)c1nc2c(Br)c(Br)c(Br)c(Br)c2[nH]1,Ki,[1],0.15 µM
FC(F)(F)c1nc2c(I)c(I)c(I)c(I)c2[nH]1,Ki,Casein kinase II,0.37 µM
FC(F)(F)c1nc2c(Br)c(Br)c(Br)c(Br)c2[nH]1,Ki,[4],0.4 µM
O=c1[nH]ccc(Oc2ccccc2)c1I,fold change (FC),[5],300
Clc1c(Cl)c(I)c2[nH]cnc2c1I,Ki,[1],0.3 µM
S=C1NC2C(I)=C(I)C(I)=C(I)C2N1 (stereo not given),Ki,Casein kinase II,0.2 µM
Nc1ncnc2c1c(I)cn2[C@@H]1O[C@H](CO)[C@@H](O)[C@H]1O,fold change (FC),[6],200
